From US8586620B2, “Substituted indole compounds having NOS inhibitory activity” (NeurAxon, Inc., priority 2005, dated 2013)
Read-outs that look alike come from different tables or passages of the source.

Experiments:
[1] = target: human endothelial constitutive NOS (eNOS) (Homo sapiens (Human), UniProt P29474); experiment: Human eNOS enzyme assay, radiometric; conditions: read-out: eNOSh;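 note: recombinant human eNOS expressed in baculovirus-infected Sf9 cells, activity read as [3H]L-arginine turned into [3H]L-citrulline, the product isolated on ion-exchange resin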
[2] = target: human neuronal constitutive NOS (nNOS) (Homo sapiens (Human), UniProt P29475); experiment: Human nNOS enzyme assay, radiometric [3H]L-arginine to [3H]L-citrulline; conditions: for IC50: read-out: nNOSh;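 for all read-outs here: recombinant human nNOS expressed in baculovirus-infected Sf9 cells, enzyme activity measured radiometrically as turnover of [3H]L-arginine into [3H]L-citrulline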
[3] = target: human inducible NOS (iNOS) (Homo sapiens (Human), UniProt P35228); experiment: Human iNOS enzyme assay, radiometric; type: biochemical; conditions: Table I; human NOS; dihydrochloride or monohydrochloride salts; read-out: iNOSh
Description: Standard deviations were 10% or less.

[4] = Table II, human NOS, dihydrochloride or monohydrochloride salts
[5] = Table I, human NOS, dihydrochloride or monohydrochloride salts

Row | SMILES | IC50 [1, 4] | e/n ([2]; Table II, ratio eNOSh/nNOSh) | IC50 [2, 4] | IC50 [2, 5] | IC50 [1, 5] | e/n ([2]; Table I, ratio eNOSh/nNOSh) | other results
1 | N=C(Nc1ccc2ccn(CCCN3CCOCC3)c2c1)c1ccoc1 [Compound 184] | 19 µM | 19 | 1 µM |  |  |  | 
2 | CSC(=N)Nc1ccc2[nH]cc(C3=CCN(C)CC3)c2c1 [Compound 75, Methyl 3-(1-methyl-1,2,3,6-tetrahydropyridin-4-yl)-1H-indol-5-ylcarbamimidothioate] |  |  |  | 2.25 µM | 36.1 µM | 16.0 | 
3 | CN1CCC[C@H]1Cc1c[nH]c2ccc(NC(=N)c3ccco3)cc12 [Compound 107, (S)-N-(3-((1-methylpyrrolidin-2-yl)methyl)-1H-indol-5-yl)furan-2-carboximidamide] |  |  |  | 2.52 µM | 24.9 µM | 9.9 | 
4 | CCSC(=N)Nc1ccc2[nH]cc(C3=CCN(C)CC3)c2c1 [Compound 67, Ethyl 3-(1-methyl-1,2,3,6-tetrahydropyridin-4-yl)-1H-indol-5-ylcarbamimidothioate] |  |  |  | 4.8 µM | 105 µM | 22 | 
5 | CN(C)CCc1c[nH]c2ccc(CNC(=N)c3cccs3)cc12 [Compound 59, N-((3-(2-(dimethylamino)ethyl)-1H-indol-5-yl)methyl)thiophene-2-carboximidamide] |  |  |  |  | 86.2 µM |  | e/n [2]: 7; IC50 [2]: 12.8 µM
6 | N=C(Nc1ccc2ccn(CCCCn3ccnc3)c2c1)c1cccs1 [Compound 168, N-(1-(4-(1H-imidazol-1-yl)butyl)-1H-indol-6-yl)thiophene-2-carboximidamide] | 2.53 µM | 9.6 | 0.26 µM |  |  |  | 
7 | CN1CCC[C@@H]1Cc1c[nH]c2ccc(NC(=N)c3ccco3)cc12 [Compound 106, (R)-N-(3-((1-Methylpyrrolidin-2-yl)methyl)-1H-indol-5-yl)furan-2-carboximidamide] |  |  |  | 2.08 µM | 27.1 µM | 13.0 | 
8 | N=C(Nc1ccc2[nH]cc(C3CN4CCC3CC4)c2c1)c1ccco1 (stereo not drawn) [Compound 127, N-(3-(quinuclidin-3-yl)-1H-indol-5-yl)furan-2-carboximidamide] |  |  |  | 2.6 µM | 66 µM | 25.3 | 
9 | CN1CC=C(c2c[nH]c3ccc(NC(=N)c4ccco4)cc23)CC1 [Compound 46, N-(3-(1-methyl-1,2,3,6-tetrahydropyridin-4-yl)-1H-indol-5-yl)furan-2-carboximidamide] |  |  |  | 1.78 µM | 54 µM | 31 | IC50 [3]: 58 µM
10 | N=C(Nc1ccc2ccn(CCc3ccccc3)c2c1)c1cccs1 [Compound 115] |  | >8.3 |  |  |  |  | IC50 [1]: > 100 µM; IC50 [2]: 12 µM
11 | CN1CC=C(c2c[nH]c3ccc(CNC(=N)c4cccs4)cc23)CC1 [Compound 51, N-((3-(1-methyl-1,2,3,6-tetrahydropyridin-4-yl)-1H-indol-5-yl)methyl)thiophene-2-carboximidamide] |  |  |  | 1.19 µM | 49.7 µM | 42 | IC50 [3]: 85 µM
12 | N=C(Nc1ccc2ccn(CCCN3CCOCC3)c2c1)c1ccsc1 [Compound 182] | 17 µM | 12.1 | 1.4 µM |  |  |  | 
13 | CN(C)C1CCC(c2c[nH]c3ccc(NC(=N)c4cccs4)cc23)CC1 (stereo not drawn) [Compound 116, N-(3-(4-(dimethylamino)cyclohexyl)-1H-indol-5-yl)thiophene-2-carboximidamide] |  |  |  |  | 31.8 µM | 9.2 | 
14 | N=C(Nc1ccc2[nH]cc(C3CN4CCC3CC4)c2c1)c1cccs1 (stereo not drawn) [Compound 126, N-(3-(quinuclidin-3-yl)-1H-indol-5-yl)thiophene-2-carboximidamide] |  |  |  | 1.04 µM | 32.1 µM | 30.9 | 
15 | N=C(Nc1ccc2ccn(CCCN3CCOCC3)c2c1)c1ccco1 [Compound 183] | 34 µM | 14.2 | 2.4 µM |  |  |  | 
16 | CN1CC=C(c2c[nH]c3ccc(NC(=S)NC(=O)c4ccccc4)cc23)CC1 [Compound 64, N-(3-(1-methyl-1,2,3,6-tetrahydropyridin-4-yl)-1H-indol-5-ylcarbamothioyl)benzamide] |  |  |  | 14 µM | 43 µM | 3 | 
17 | CN1C2C=C(c3c[nH]c4ccc(NC(=N)c5cccs5)cc34)CC1CC2 (stereo not drawn) [Compound 90, N-(3-(8-methyl-8-azabicyclo[3.2.1]oct-3-en-3-yl)-1H-indol-5-yl)thiophene-2-carboximidamide] |  |  |  | 3.35 µM | 67.9 µM | 20.3 | 

Now from value to compound, other results behind:

Row | IC50 [1, 4] | e/n ([2]; Table II, ratio eNOSh/nNOSh) | IC50 [2, 4] | IC50 [2, 5] | SMILES | IC50 [1, 5] | e/n ([2]; Table I, ratio eNOSh/nNOSh) | other results
18 | 3.8 µM | 7.8 | 0.49 µM |  | N=C(Nc1ccc2ccn(CCN3CCCCC3)c2c1)c1cccs1 [Compound 136] |  |  | 
19 |  |  |  | 5.62 µM | N=C(Nc1ccc2[nH]cc(C3CCN(C(=O)c4ccccc4)CC3)c2c1)c1cccs1 [Compound 70, N-(3-(1-benzoylpiperidin-4-yl)-1H-indol-5-yl)thiophene-2-carboximidamide] | 50.9 µM | 9.06 | 
20 |  |  |  | 0.41 µM | CN(C)CCCc1c[nH]c2ccc(NC(=N)c3cccs3)cc12 [Compound 56, N-(3-(3-(dimethylamino)propyl)-1H-indol-5-yl)thiophene-2-carboximidamide] | 15.1 µM |  | IC50 [3]: 5.6 µM
21 |  |  |  | 3 µM | CN(C)C1CC=C(c2c[nH]c3ccc(NC(=N)c4cccs4)cc23)CC1 (stereo not drawn) [Compound 114, N-(3-(4-(dimethylamino)cyclohex-1-enyl)-1H-indol-5-yl)thiophene-2-carboximidamide] | 51.4 µM | 17.1 | 
22 | 16 µM | 50 | 0.32 µM |  | CN1CCC[C@@H]1CCn1ccc2ccc(NC(=N)c3cccs3)cc21 [Compound 138] |  |  | 
23 |  |  |  | 2.24 µM | CN1CCC(c2c[nH]c3ccc(NC(=N)c4ccco4)cc23)CC1 [Compound 47, N-(3-(1-methylpiperidin-4-yl)-1H-indol-5-yl)furan-2-carboximidamide] | 97.4 µM |  | IC50 [3]: 55 µM
24 |  |  |  | 2 µM | N=C(Nc1ccc2[nH]cc(CCCN3CCOCC3)c2c1)c1cccs1 [Compound 181, N-(3-(3-morpholinopropyl)-1H-indol-5-yl)thiophene-2-carboximidamide] | 31 µM | 9.9 | IC50 [3]: 9.9 µM
25 |  |  |  | 2.2 µM | N=C(Nc1ccc2[nH]cc(-c3ccncc3)c2c1)c1cccs1 [Compound 73, N-(3-(pyridin-4-yl)-1H-indol-5-yl)thiophene-2-carboximidamide] | 43.4 µM | 19.7 | 
26 | 4.56 µM | 3.74 | 1.22 µM |  | N=C(Nc1ccc2ccn(CCCCn3ccnc3)c2c1)c1cccs1 [Compound 167] |  |  | 
27 | 33 µM | 14.3 | 2.3 µM |  | CN1CCCC1CCn1c(Cc2ccccc2)cc2ccc(NC(=N)c3cccs3)cc21 (stereo not drawn) [Compound 162] |  |  | 
28 | 28.3 µM | 41.1 | 0.7 µM |  | CN(C)CCCn1ccc2ccc(NC(=N)c3cccs3)cc21 [Compound 157, N-(1-(3-(dimethylamino)propyl)-1H-indol-6-yl)thiophene-2-carboximidamide] |  |  | 
29 |  |  |  | 9.23 µM | N=C(Nc1ccc2[nH]cc(C3CCNCC3)c2c1)c1cccs1 [Compound 88, N-(3-(piperidin-4-yl)-1H-indol-5-yl)thiophene-2-carboximidamide] | 78.1 µM | 8.5 | 
30 | 10.2 µM | 17.2 | 0.59 µM |  | CCN(CC)CCCn1ccc2ccc(NC(=N)c3cccs3)cc21 [Compound 158] |  |  | 
31 |  |  |  | 1.73 µM | CNC1CC=C(c2c[nH]c3ccc(NC(=N)c4cccs4)cc23)CC1 (stereo not drawn) [Compound 100, N-(3-(4-(methylamino)cyclohex-1-enyl)-1H-indol-5-yl)thiophene-2-carboximidamide] | 32 µM | 18.5 | 
32 |  |  |  | 2.43 µM | CCN1CCC(c2c[nH]c3ccc(NC(=N)c4cccs4)cc23)CC1 [Compound 62, N-(3-(1-ethylpiperidin-4-yl)-1H-indol-5-yl)thiophene-2-carboximidamide] | 57.3 µM | 24 | 
33 |  |  |  | 1.88 µM | CN1CCC(c2c[nH]c3ccc(NC(=N)c4cccs4)cc23)CC1 [Compound 43, N-(3-(1-methylpiperidin-4-yl)-1H-indol-5-yl)thiophene-2-carboximidamide] | 32.6 µM | 17 | IC50 [3]: 58 µM
34 | 37 µM | 42.5 | 0.87 µM |  | CN1CCCC(n2ccc3ccc(NC(=N)c4cccs4)cc32)CC1 (stereo not drawn) [Compound 156] |  |  | 
35 | 24 µM | 120 | 0.2 µM |  | CN1CCC[C@H]1CCn1ccc2ccc(NC(=N)c3cccs3)cc21 [Compound 139] |  |  | 
36 | 5.77 µM | 2.11 | 2.73 µM |  | CN(C)CCCn1ccc2ccc(NC(=N)c3cccs3)cc21 [Compound 160] |  |  | 
37 |  |  |  | 2.78 µM | CN1CC=C(c2c[nH]c3ccc(NC(=N)c4cccs4)cc23)C(F)C1 (stereo not drawn) [Compound 134, N-(3-(3-fluoro-1-methyl-1,2,3,6-tetrahydropyridin-4-yl)-1H-indol-5-yl)thiophene-2-carboximidamide] | 143 µM | 51.4 | 
38 |  |  |  | 0.717 µM | N=C(Nc1ccc2[nH]cc(C3CCN(C(=N)c4cccs4)CC3)c2c1)c1cccs1 [Compound 77, N-(3-(1-(imino(thiophen-2-yl)methyl)piperidin-4-yl)-1H-indol-5-yl)thiophene-2-carboximidamide] | 4.44 µM | 6.19 | 
39 | 9.91 µM | 5.57 | 1.78 µM |  | CNCCCn1ccc2ccc(NC(=N)c3cccs3)cc21 [Compound 161] |  |  | 
